Entries after “also recorded” stand apart in the source; their conditions may differ.
How the values were obtained:
[1] = Metabolic stability in CES1-KO mouse liver homogenate; assay type: in vitro ADME; settings: tissue homogenate, 10 μM, 37° C.
Description: (§1) In vitro stability studies were done using CES1KO mouse plasma, human plasma, CES1-KO mouse liver, and human liver microsomes as previously described. For tissue homogenate stability studies, washed tissue was diluted 10-fold in 0.1 M potassium phosphate buffer and homogenized using probe sonication. Crude homogenate was then aliquoted to 1 mL, and spiked with 10 mM stock of the analyte in DMSO to achieve a 10 μM final concentration. The plasma stability of the prodrugs was determined by spiking the analyte in 1 mL of plasma. The plasma and tissues were incubated in an orbital shaker at 37° C. Stability in human liver microsomes was assessed at a final prodrug concentration of 1 μM with 0.2 mg/mL protein for microsomes. All the stability studies were conducted at predetermined times (0 and 60 min), where 50 μL aliquots of the mixture in triplicate were removed and the reaction was quenched by addition of 5 times the volume of ice-cold methanol spiked with the internal standard (losartan: 0.5 μM). The samples were vortex-mixed for 30 s and centrifuged at 10,000 g for 10 min at 4° C. An amount of 50 μL of the supernatant was diluted with 50 μL of water and transferred to a 250 μL polypropylene vial sealed with a Teflon cap. Prodrug disappearance was monitored over time using liquid chromatography and mass spectrometry (LC-MS).
(§2) Analyses were performed on a Dionex ultra high-performance LC system coupled with Q Exactive Focus orbitrap mass spectrometer (Thermo Fisher Scientific Inc., Waltham MA). Separation was achieved using Agilent Eclipse Plus column (100×2.1 mm i.d., maintained at 35° C.) packed with a 1.8 μm C18 stationary phase. The mobile phase consisted of 0.1% formic acid in water and 0.1% formic acid in acetonitrile, […] were operated at a flow rate of 0.3 mL/min for 7 min using gradient elution. The mass spectrometer controlled by Xcalibur software 4.0.27.13 (Thermo Scientific) was operated with a HESI ion source in positive ionization mode. Metabolites were identified in the full-scan mode (from m/z 50 to 1600) by comparing […] samples

[2] = Metabolic stability in human liver microsomes; assay type: in vitro ADME; settings: 1 μM prodrug, 0.2 mg/mL protein
Description: as §1, §2

[3] = Plasma stability in CES1KO mouse plasma; assay type: in vitro ADME; settings: for Plasma Stability (% Remaining at 60 min) CES1^−/− Mouse Plasma: 37° C.; for stability in vitro (in words): mouse and human plasma and liver microsomes in vitro
Description: as §1, §2

[4] = Plasma stability in human plasma; assay type: in vitro ADME; settings: 37° C.
Description: as §1, §2

[5] = Pharmacokinetics in C57BL/6 CES1^−/− mice bearing flank EL4 tumors; assay type: in vivo
Description: The pharmacokinetic study in C57BL/6 CES1 mice was conducted according to protocols reviewed and approved by the Johns Hopkins Institutional Animal Care and Use Committee in compliance with the Association for Assessment and Accreditation of Laboratory Animal Care International and the Public Health Service Policy on the Humane Care and Use of Laboratory Animals (PHS Policy). Briefly, naïve male and female C57BL/6 CES1^−/− mice (weighing between 25 and 30 g) 6-8 weeks of age were used. The animals were maintained on a 12 h light-dark cycle with ad libitum access to food and water. Tumors were grown via subcutaneous (SC) injection of EL4 cells (1×10^6 cells in 0.2 mL of phosphate-buffered saline) in one location on the flank of each mouse. […]
For quantifying intact analytes in the pharmacokinetic samples, plasma samples (25 μL) were processed using a single step protein precipitation method by addition of 125 μL of methanol containing internal standard (losartan: 0.5 μM), followed by vortex-mixing for 30 s and then centrifugation at 16,000 g for 5 min at 4° C. […]
The samples were subjected to dabsyl chloride derivatization and analyzed by LC-MS/MS, as described in Tenora et al., 2019. […]

| Compound | Liver Stability (% Remaining at 60 min) CES1^−/− Mouse Liver [1] [%] | Liver Stability (% Remaining at 60 min) Human Liver Microsomes [2] [%] | Plasma Stability (% Remaining at 60 min) CES1^−/− Mouse Plasma [3] [%] | stability in vitro (in words) [3] | Plasma Stability (% Remaining at 60 min) Human Plasma [4] [%] | preferential tumor delivery / tumor targeting (in words) [5] |
| --- | --- | --- | --- | --- | --- | --- |
| CN(C)CC(=O)N[C@@H](CCC(=O)N[C@@H](CCC(=O)C=[N+]=[N-])C(=O)N[C@@H](CCC(=O)C=[N+]=[N-])C(=O)OC(C)(C)C)C(=O)OC(C)(C)C [Prodrug P3, tert-Butyl (6S,11S,14S)-6-(tert-butoxycarbonyl)-11,14-bis(4-diazo-3-oxobutyl)-2-methyl-4,9,12-trioxo-2,5,10,13-tetraazapentadecan-15-oate] | 96.0 ± 4.36 | 105 ± 2.53 | 92.3 ± 0.882 | stable | 106 ± 2.40 | exhibited preferential tumor delivery |
| CN(C)CC(=O)N[C@@H](Cc1c[nH]c2ccccc12)C(=O)N[C@@H](CCC(=O)N[C@@H](CCC(=O)C=[N+]=[N-])C(=O)N[C@@H](CCC(=O)C=[N+]=[N-])C(=O)OC(C)(C)C)C(=O)OC(C)(C)C [Prodrug P4, tert-Butyl (6S,9S,14S,17S)-6-((1H-indol-3-yl)methyl)-9-(tert-butoxycarbonyl)-14,17-bis(4-diazo-3-oxobutyl)-2-methyl-4,7,12,15-tetraoxo-2,5,8,13,16-pentaazaoctadecan-18-oate] | 54.3 ± 1.45 | 107 ± 1.63 | 101 ± 4.67 | stable | 100 ± 0.00 | exhibited preferential tumor delivery; also recorded: showed tumor targeting |
| CCOC(=O)[C@H](CCC(=O)N[C@@H](CCC(=O)C=[N+]=[N-])C(=O)N[C@@H](CCC(=O)C=[N+]=[N-])C(=O)[O-])NC(=O)CN(C)C.[Na+] [Prodrug P11, Sodium (6S,11S,14S)-11,14-bis(4-diazo-3-oxobutyl)-6-(ethoxycarbonyl)-2-methyl-4,9,12-trioxo-2,5,10,13-tetraazapentadecan-15-oate] | 96.3 ± 1.80 | 103 ± 4.97 | 91.8 ± 4.16 | – | 83.6 ± 1.76 | – |
| CC(=O)N[C@@H](CCC(=O)N[C@@H](CCC(=O)C=[N+]=[N-])C(=O)N[C@@H](CCC(=O)C=[N+]=[N-])C(N)=O)C(N)=O [Prodrug P6, (S)-4-Acetamido-N1-((S)-1-(((S)-1-amino-6-diazo-1,5-dioxohexan-2-yl)amino)-6-diazo-1,5-dioxohexan-2-yl)pentanediamide] | 85.0 ± 5.86 | 98.5 ± 0.676 | 99.0 ± 3.51 | – | 105 ± 1.76 | – |
| CN(C)CC(=O)N[C@@H](CCC(=O)N[C@@H](CCC(=O)C=[N+]=[N-])C(=O)N[C@@H](CCC(=O)C=[N+]=[N-])C(=O)OC(C)(C)C)C(=O)[O-].[Na+] [Prodrug P15, Sodium N^5—((S)-1-(((S)-1-(tert-butoxy)-6-diazo-1,5-dioxohexan-2-yl)amino)-6-diazo-1,5-dioxohexan-2-yl)-N^2-(dimethylglycyl)-L-glutaminate] | 99.9 ± 3.45 | 93.2 ± 4.29 | >100 | – | 104 ± 8.45 | – |
| CN(C)CC(=O)N[C@@H](CCC(=O)N[C@@H](CCC(=O)C=[N+]=[N-])C(=O)N[C@@H](CCC(=O)C=[N+]=[N-])C(=O)[O-])C(=O)[O-].[Na+].[Na+] [Prodrug P12, Sodium (6S,11S,14S)-6-carboxylato-11,14-bis(4-diazo-3-oxobutyl)-2-methyl-4,9,12-trioxo-2,5,10,13-tetraazapentadecan-15-oate] | 111 ± 9.27 | 99.6 ± 3.50 | 95.6 ± 0.44 | – | 76.2 ± 7.25 | – |

Reference: patent US20260151372A1, “AZOTOMYCIN PRODRUGS WITH PREFERENTIAL TUMOR DELIVERY” (The Johns Hopkins University, priority 2022, published 2026)
